Data reported in patent US12172959B2, “Mono- or di-substituted indole derivatives as dengue viral replication inhibitors” (priority 2015, dated 2024).
Where two headings read alike, the source gives them in different places.

Experiments:
DENV-2 strain 16681 = experiment: Tetravalent RT-qPCR assay Protocol A, serotype 2; assay type: cell-based; conditions: Dengue virus, DENV2, 72 h; Protocol A, RT-qPCR serotype 2 16681, Vero cells, day 3; read-out: EC50
Method: (§1) The antiviral activity of the compounds of the invention was tested against DENV-1 strain TC974#666 (NCPV; Table 6), DENV-2 strain 16681 (Table 7), DENV-3 strain H87 (NCPV; Table 8) and DENV-4 strains H241 (NCPV; Table 9A) and SG/06K2270DK1/2005 (Eden; Table 9B) in a RT-qPCR assay. Therefore, Vero cells were infected with either DENV-1, or -2, or -3, or -4 in the presence or absence of test compounds. At day 3 post-infection, the cells were lysed and cell lysates were used to prepare cDNA of both a viral target (the 3′UTR of DENV; Table 2) and a cellular reference gene (β-actin, Table 2). Subsequently, a duplex real time PCR was performed on a Lightcycler480 instrument. The generated Cp value is inversely proportional to the amount of RNA expression of these targets. Inhibition of DENV replication by test compound results in a shift of Cp's for the 3′UTR gene. On the other hand, if a test compound is toxic to the cells, a similar effect on β-actin expression will be observed. The comparative ΔΔCp method is used to calculate EC50, which is based on the relative gene expression of the target gene (3′UTR) normalized with the cellular housekeeping gene (β-actin).
(§2) The culture medium consisted of minimal essential medium supplemented with 2% of heat-inactivated fetal calf serum, 0.04% gentamycin (50 mg/mL) and 2 mM of L-glutamine. Vero cells, obtained from ECACC, were suspended in culture medium and 75 μL/well was added in 96-well plates (10000 cells/well), which already contain the antiviral compounds. […] In addition, each plate contains wells which are assigned as virus controls (containing cells and virus in the absence of compound) and cell controls (containing cells in the absence of virus and compound). Once the cells were added in the plates, the plates were incubated in a fully humidified incubator (37° C., 5% CO2) until the next day. Dengue viruses serotype-1, 2, 3 and 4 were diluted in order to obtain a Cp of ˜22-24 in the assay. Therefore, 25 μL of virus suspension was added to all the wells containing test compound and to the wells assigned as virus control. In parallel, 25 μL of culture medium was added to the cell controls. Next, the plates were incubated for 3 days in a fully humidified incubator (37° C., 5% CO2). After 3 days, the supernatant was removed from the wells and the cells were washed twice with ice-cold PBS (˜100 μL). The cell pellets within the 96-well plates were stored at −80° C. for at least 1 day. Next, RNA was extracted using the Cells-to-CT™ lysis kit, according to the manufacturer's guideline (Life Technologies). The cell lysates can be stored at −80° C. or immediately used in the reverse transcription step.
(§3) In preparation of the reverse transcription step, mix A (table 3A) was prepared and 7.57 μL/well was dispensed in a 96-well plate. After addition of 5 μL of the cell lysates, a five minute denaturation step at 75° C. was performed (table 3B). Afterwards, 7.43 μL of mix B was added (table 3C) and the reverse transcription step was initiated (table 3D) to generate cDNA.
(§4) Finally, a RT-qPCR mix was prepared, mix C (table 4A), and 22.02 μL/well was dispensed in 96-well LightCycler qPCR plates to which 3 μL of cDNA was added and the qPCR was performed according to the conditions in table 4B on a LightCycler 480.
(§5) Using the LightCycler software and an in-house LIMS system, dose response curves for each compound were calculated and the half maximal effective concentration (EC50) and the half maximal cytotoxic concentration (CC50) were determined.

Vero cells [1] = conditions: African green monkey
DENV-1 strain TC974#666 = experiment: Tetravalent RT-qPCR assay Protocol A, serotype 1; assay type: cell-based; conditions: Dengue virus, DENV1, 72 h, RT-qPCR serotype 1 TC974#666, Vero cells, day 3
Method: as §1, §2, §3, §4, §5

Vero cells [2] = experiment: in vitro; assay type: cell-based; conditions: African green monkey, 3 days
Method: as §1, §2, §5

in vitro = assay type: cell-based; conditions: African green monkey, CC50
Method: as §1, §2, §5

DENV-3 strain H87 = experiment: Tetravalent RT-qPCR assay Protocol A, serotype 3; assay type: cell-based; conditions: Dengue virus, DENV3, 72 h, RT-qPCR serotype 3 H87, Vero cells, day 3
Method: as §1, §2, §3, §4, §5

DENV-4 strain H241 = experiment: Tetravalent RT-qPCR assay Protocol A, serotype 4 H241; assay type: cell-based; conditions: Dengue virus, DENV4, Vero, 72 h
Method: as §1, §2, §3, §4, §5

DENV-2 16681 strain = experiment: DENV-2 antiviral assay (eGFP fluorescence, Vero cells); assay type: cell-based, Dengue virus; conditions: DENV-2 16681 eGFP, MOI 0.5, 3 days
Method: The antiviral activity of all the compounds of the invention was tested against the DENV-2 16681 strain which was labeled with enhanced green fluorescent protein (eGPF; Table 1). The culture medium consists of minimal essential medium supplemented with 2% of heat-inactivated fetal calf serum, 0.04% gentamycin (50 mg/mL) and 2 mM of L-glutamine. Vero cells, obtained from ECACC, were suspended in culture medium and 25 μL was added to 384-well plates (2500 cells/well), which already contain the antiviral compounds. Typically, these plates contain a 5-fold serial dilution of 9 dilution steps of the test compound at 200 times the final concentration in 100% DMSO (200 nL). […] Finally, each plate contains wells which are assigned as virus controls (containing cells and virus in the absence of compound), cell controls (containing cells in the absence of virus and compound) and medium controls (containing medium in the absence of cells, virus and compounds). To the wells assigned as medium control, 25 μL of culture medium was added instead of Vero cells. Once the cells were added to the plates, the plates were incubated for 30 minutes at room temperature to allow the cells to distribute evenly within the wells. Next, the plates were incubated in a fully humidified incubator (37° C., 5% CO2) until the next day. Then, DENV-2 strain 16681, labeled with eGFP, was added at a multiplicity of infection (MOI) of 0.5. Therefore, 15 μL of virus suspension was added to all the wells containing test compound and to the wells assigned as virus control. In parallel, 15 μL of culture medium was added to the medium and cell controls. Next, the plates were incubated for 3 days in a fully humidified incubator (37° C., 5% CO2). At the day of the read out, the eGFP fluorescence was measured using an automated fluorescence microscope at 488 nm (blue laser). Using an in-house LIMS system, inhibition dose response curves for each compound were calculated and the half maximal effective concentration (EC50) was determined. Therefore, the percent inhibition (I) for every test concentration is calculated using the following formula: I=100*(ST−SCC)/(SVC−SCC); ST, SCC and SVC are the amount of eGFP signal in the test compound, cell control and virus control wells, respectively. The EC50 represents the concentration of a compound at which the virus replication is inhibited with 50%, as measured by a 50% reduction of the eGFP fluorescent intensity compared to the virus control. The EC50 is calculated using linear interpolation.

**Q.** Which results are given for `COc1cc(NC(C(=O)c2c[nH]c3cc(OC)c(OC(F)(F)F)cc23)c2ccc(Cl)cc2OC)cc(S(C)(=O)=O)c1` (single isomer, unassigned) [Compound 10A, 2-(4-chloro-2-methoxyphenyl)-2-((3-methoxy-5-(methylsulfonyl)phenyl)amino)-1-(6-methoxy-5-(trifluoromethoxy)-1H-indol-3-yl)ethanone]?
**A.** EC50 (DENV-2 strain 16681): 0.057 nM; CC50 (Vero cells [1]): 2600 nM; EC50 (DENV-1 strain TC974#666): 0.27 nM; CC50 (Vero cells [2]): 1000 nM; CC50 at 3 days (in vitro): 1600 nM; EC50 (DENV-3 strain H87): 3.7 nM; EC50 (DENV-4 strain H241): 11 nM; EC50 (DENV-2 16681 strain): 0.12 nM
